Source: patent US7267994B2, “Element-coded affinity tags” (Regents of the University of California, priority 2003, dated 2007)

Key:
antibody 2D12.5 [1] = test: relative binding curves of 2D12.5 for Y-DOTA isomers and side chain variants; set-up: species or system murine; settings: for relative binding affinity for 2D12.5, isomers: coordinated metal Y^3+, FIG. 15; for relative binding affinity for 2D12.5, side chain location: Y-DOTA molecule with different side chain locations, FIG. 6
Excerpt: FIG. 6 is a graphical display showing the relative binding curves of an exemplary metal chelate, the Y-DOTA molecule, with different side chain locations. […] Evaluation of the crystal structure seems to indicate that shorter substitutions at this position may bind with higher affinity. Substitutions at other locations may yield reasonably high affinities as well. The (5-Amino-2-methoxy-phenyl)-carboxymethyl)-DOTA analyzed in this experiment was racemic, so it is not clear which isomer binds with higher affinity. The low pKa of the carboxymethyl proton makes it difficult to prepare a chirally pure molecule.
FIG. 15 is a graphical display showing the relative binding curves of 2D12.5 for Y-DOTA isomers and Y-DTPA. 2D12.5 binds both the (R)- and (S)- isomers of 2-(4-nitrobenzyl)-DOTA when the coordinated metal is Y^3+ (the same behavior is expected for the other rare earths). The (S)-isomer confers Λ-helicity, while the (R)-isomer confers Δ-helicity to the acetate arms. […] Y-DOTA (no-sidearm) exists is solution as a racemic mixture of the coordination isomers.

antibody 2D12.5 [2] = test: competitive immunoassay (ELISA) of metal-DOTA complexes relative to Y-DOTA; type: binding, murine; settings: metal complexes of [S]-2-(p-nitrobenzyl)-DOTA, 37° C.
Excerpt: FIG. 13 is graphical display showing the relative binding of metal-DOTA complexes to antibody 2D12.5. A representative set of competitive binding curves obtained from ELISA experiments described in Example 3 below. Error bars (representing the standard error of the mean) are shown, but are generally smaller than the data points.
To determine the metal selectivity of the antibody 2D12.5, a competitive immunoassay was used to measure the binding constants of multiple metal-DOTA complexes relative to Y^3+-DOTA.
We examined the monoclonal antibody 2D12.5, initially developed to bind specifically to Y-DOTA for targeted radiotherapy (see, e.g., Goodwin et al., Cancer Res. 54: 5937-5946 (1994)), in order to determine the scope of its activity. To assess the metal selectivity of antibody 2D12.5, a competitive immunoassay to measure the binding constants of various metal-DOTA complexes relative to the original Y^3+ complex was developed (FIG. 13). Briefly, 2D12.5 was incubated at 37° C. in the presence of immobilized Y-DOTA and a soluble metal-DOTA competitor. The metal-DOTA concentration was varied from μM to pM in order to determine the relative binding affinity of 2D12.5 for each metal chelate in comparison to Y-DOTA. Binding was measured by standard methods known to those of skill in the art. […]
Target sequence in this assay (as listed by the source): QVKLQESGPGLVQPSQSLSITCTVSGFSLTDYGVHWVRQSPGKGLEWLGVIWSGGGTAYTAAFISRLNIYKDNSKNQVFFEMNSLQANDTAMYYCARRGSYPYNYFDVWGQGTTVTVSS
Target sequence in this assay (as listed by the source): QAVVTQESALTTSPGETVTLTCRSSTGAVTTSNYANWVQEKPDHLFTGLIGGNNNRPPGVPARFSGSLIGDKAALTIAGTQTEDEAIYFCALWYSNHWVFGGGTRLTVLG

Compound	relative binding affinity for 2D12.5, isomers (antibody 2D12.5 [1])	relative binding affinity for 2D12.5, side chain location (antibody 2D12.5 [1])	binding to 2D12.5 compared with the Y^3+ complex (antibody 2D12.5 [2])	binding to 2D12.5 compared with the Y^3+ complex (antibody 2D12.5 [2]; listed as Gd^3+)
O=C(O)CN1CCN(CC(=O)O)CCN(CC(=O)O)C(Cc2ccc([N+](=O)[O-])cc2)CN(CC(=O)O)CC1 (single isomer, unassigned; isomer 2) [(R)-isomer, 2-(4-nitrobenzyl)-DOTA]	affinity decreases less than an order of magnitude			
O=C(O)CN1CCN(CC(=O)O)CCN(CC(=O)O)[C@@H](Cc2ccc([N+](=O)[O-])cc2)CN(CC(=O)O)CC1 [(S)-2-(4-nitrobenzyl)-DOTA, (S)-2-(4-nitro-benzyl)-1,4,7,10-tetraazacyclododecane-N,N′,N″,N′″-tetraacetic acid]	preferred isomer for binding	clearly stronger		
(5-Amino-2-methoxy-phenyl)-carboxymethyl)-DOTA		still sufficiently strong		
Gd-DOTA			bind more tightly than the original Y^3+ complex	strongest binders
